Patent publication US5430057A, “Parenteral busulfan for treatment of malignant disease” (priority 1993, dated 1995)
Values after ≈ are worked out from the molar mass of the structure shown. “Also recorded” adds a separate entry of the source.

Key:
[1] = Stability of busulfan formulations on storage / after mixing; format: physicochemical
Procedure: Stability of the Various Busulfan Formulations. The physical and chemical stabilities of the various parenteral busulfan formulations were examined as follows: First, busulfan was dissolved at a concentration of 25 mg/ml in DMA only ("stock solution") and incubated at 4° C. at 22° C. and at 40°C. Starting at time zero, then weekly up to 10 weeks, samples were withdrawn and analyzed for busulfan concentration by HPLC. Second, the busulfan-DMA was diluted with PEG-400/water to give final concentrations of DMA:PEG-400:water of 20:40:40 and final busulfan concentrations of 2-10 mg/ml. These formulations were subsequently analyzed by HPLC immediately after mixing and then hourly for eight hours. Third, busulfan formulation mixtures were diluted in normal saline to a final busulfan concentration of 1 mg/ml. The preparations were then introduced into infusion bags (Viaflex™ Baxter Healthcare Corp Deerfield, Id.), and allowed to run through a parenteral infusion set at a rate of 1 ml/min. Samples were collected at 0, 0.5, 1.0, 2.0, 5.0, 7.0, 9.0, and 12 hours and analyzed for busulfan by HPLC as above.
The drug was first dissolved in DMA at 25 mg/ml. Different aliquots were stored at 4° C., at 22° C., and at 40°C. From time 0 and then weekly, samples were analyzed for busulfan drug degradation over at least 15 weeks of observation. […] The stability of busulfan in the complete 20% DMA/40% PEG-400/40% water was also studied for the following different busulfan concentrations, 2, 3, 5, 8, and 10 mg/ml. At 2 and 3 mg/ml the busulfan was stable for the duration of the 8 hour observation period in this solvent system.

[2] = room temperature; cited from earlier work
[3] = i.p., cited from earlier work
[4] = tested on: human KBM-3 myeloid leukemia cells; assay: In vitro cytotoxicity, MTT assay; format: cell-based; settings: for cells killed: 24 hours, 37° C.
Procedure: In vitro Cytotoxicity of Busulfan in the DMA/PEG-400 Vehicle. Human leukemic KBM-3 cells (Anderson, et al., 1992), were incubated for 24 hours in the complete vehicle without the addition of busulfan at different concentrations (0.5%, 1.0%, 2.0%, 3.0% and […], v/v), to assay the cytotoxic properties of the 20% DMA/40% PEG-400 aqueous vehicle by itself (negative controls), or with the addition of busulfan. In parallel, cells in Iscove's modified Dulbecco medium (GIBCO, Grand Island, New York, N.Y.), supplemented with 10% fetal bovine serum, were incubated with busulfan (at 25 μg/ml and 50 μg/ml), in the 20% DMA/40% PEG-400 aqueous solvent (the resulting vehicle concentrations were 1.0 and 2.0% (v/v), respectively), or with busulfan dissolved in a small volume (≤1%, v/v) of acetone (positive controls). After 24 hours, 25 μl of a 5 mg/ml solution of MTT (3, [4,5-dimethylthiazol-2-yl]2,5-diphenyltetrazoliumbromide, obtained from Sigma Chemicals, St. Louis, MO), was added to each sample, and after an additional 2 hours of incubation at 37° C., 100 μl of extraction buffer was added (extraction buffer: 20% (w/v) SDS dissolved to saturation at 37° C. in a solution of equal parts of dimethylformamide and deionized water; the pH was adjusted to 4.7 by the use of acetic acid and 1 N HCL as described (Hansen et al., 1989). After over night incubation at 37° C., the optical densities at 570 nm were measured using a Titer-Tech 96-well multi-scanner, using the extraction buffer as the blank. The cytotoxicity was determined as the difference between the samples as above and the reactivity of cells incubated in PBS alone. All determinations were performed in triplicate.
To study the cytotoxic activity of busulfan in the 20% DMA/40% PEG-400 aqueous vehicle, human KBM-3 myeloid leukemia cells (Andersson et al., 1992), were exposed to either the complete vehicle at various concentrations without or with the addition of busulfan for 24 hours at 37° C. The cytotoxicity was assayed with the MTT assay (Hansen et al., 1989). […]

[5] = Plasma pharmacokinetics of busulfan, oral tablet, oral solution and i.v. solution; format: in vivo, Sprague-Dawley rats; settings: in words
Excerpt: The present example provides the development of an efficient technique for extraction of busulfan from blood plasma, adaptation of the HPLC assay for quantitation of busulfan in the plasma extract, and studies of the in vivo plasma pharmacokinetics of busulfan when administered orally as the commercially available tablet, as an oral solution in a vehicle of 40% PEG-400, and as an intravenous injection when dissolved in a vehicle of 40% PEG-400. A comparison of the plasma pharmacokinetics of busulfan in the rat is also given after i.v. busulfan administration. The drug was dissolved at 3 mg/ml in either acetone or DMSO or the complete 20% DMA/40% PEG-400 aqueous solvent.
Rat plasma (0.2 ml) was spiked with varying concentrations of busulfan (from a stock solution in DMA), to give final drug concentrations of 0.15-3.0 μg/ml. The internal standard, 20 μl, (CGA-112913; in methanol, 20 μg/ml) was then added to the drug-plasma mixtures. After vortexing for 10 seconds, the drug and internal standard were precipitated from the plasma proteins with 0.2 ml acetonitrile with subsequent vortexing for 30 seconds. The busulfan and internal standard were then extracted using 2 ml of ethyl acetate and vortexed for 1 minute. The solutions were centrifuged for 10 minutes and 1 ml of the ethyl acetate layer was evaporated to dryness under compressed air. The busulfan and internal standard were then dissolved in 0.5 ml of distilled water and derivatized with 0.2 ml of an 8.2% (w/v) solution of diethyldithiocarbamic acid sodium and vortexed for 30 seconds.
The busulfan derivative, DDCB (Diethyldithiocarbamoyl butane), was subjected to solid phase extraction with Sep-Pak LC™ cartridges (Millipore Corporation, Bedford, Ill.) under vacuum. The cartridges were conditioned with three 1-ml washes of methanol followed by two 1-ml washes with distilled water. The derivatized solutions were then passed through the cartridges and the cartridges washed twice with 1 ml 50% methanol in distilled water. The DDCB and the internal standard were eluted from the columns using 250-μ1 methanol twice, followed by two washes of 0.5-ml of ethyl acetate. […]

[6] = Solubility of busulfan in various solvent systems (HPLC); format: physicochemical; settings: acetone, organic solvent or mixture
Procedure: A known amount of busulfan was equilibrated in the solvent system at 20°C. for predetermined periods of time. An aliquot was then removed and subjected to HPLC assay after an appropriate dilution for determining busulfan concentration and stability.
The derivatized product was separated from the reaction mixture using Sep-Pak™ C 18 solid phase extraction vials (Waters Chromatography Systems Inc., Millford, Mass.).

[7] = cited from earlier work
[8] = i.p., 2.5% carboxymethylcellulose in water; cited from earlier work
human erythrocytes = assay: Hemolysis studies; format: cell-based; settings: in words
Procedure: The procedure of Reed and Yalkowsky was employed for the studies of hemolytic potential of the different preparations, and the LD50 values of the various formulations were evaluated (Reed et al., 1985).
Variable amounts of whole blood (citrated) were added to 0.05 ml of the drug formulations in ratios of 1:1 (v/v), 1:3, 1:5, 1:7, and 1:9. The mixtures were vortexed for 10 seconds and then incubated for 2 minutes at 25°C. Five ml normal saline was then added to this blend to quench further lysis of the erythrocytes by rendering the preparation nearly isotonic. The mixture was again vortexed for 10 seconds and centrifuged for 5 minutes at 3,000 r.p.m. (Beckman Model TJ-6 Centrifuge, Beckman Instruments Inc., Palo Alto, Calif.). The supernatant was carefully aspirated and discarded. The packed erythrocytes were washed once more at room temperature with one volume of normal saline. After centrifugation, the supernatant was again carefully aspirated and discarded. […] The absorbance of the supernatant was subsequently measured at 540 nm after a 1:3 dilution with distilled water° Normal saline was assayed in parallel as a standard. The fraction of […] was defined as the absorbance reading of the respective drug formulation divided by that of the saline standards (Reed et al., 1985).
The hemolytic potential of the various busulfan formulations was evaluated. […]

[9] = Equilibrium solubility studies; format: physicochemical; settings: anhydrous dma, organic solvent or mixture
Procedure: An excess amount of busulfan was added to each solution and the mixtures were placed on a rotating mixer (Tube Rotator™, Scientific Equipment Products, Baltimore, Md.). […] For the DMA/PEG-400 aqueous vehicle, a slightly modified approach had to be taken, since DMA readily dissolved the ACRO LC 25 filter. After dissolving the busulfan in DMA, the busulfan-DMA solution was mixed with 40% PEG-400/40% water and filtered through a 0.45 μm silver filter (Nuclepore Corp., Pleasanton, Calif.) fitted to a syringe assembly. After derivatization with DDTC, the busulfan concentration was determined by HPLC as above.

erythrocytes = settings: cited from earlier work

With `CS(=O)(=O)OCCCCOS(C)(=O)=O` [busulfan, 1,4-bis-(methanesulfonoxyl)butane] the onset of degradation ([1]; 25 mg/ml in DMA, 40° C.) was “around 3 weeks”, the “degradation at 15 weeks” value ([1]; 25 mg/ml in DMA, 40° C., 15 weeks, 151200 min) was “about 50%” and the “stability in DMSO” value ([1]; DMSO, in words) was “rapidly degrades busulfan”. The solubility in water [2] was 0.025 mg/mL (≈ 0.101 mM), the platelet dysfunction ([3]; in polyethyleneglycol, 60 mg/kg) was “induce platelet dysfunction” and the “toxicity of intraperitoneal administration” value [3] was “very toxic and causes significant local tissue damage”. For the same compound, the “cytotoxic activity in vehicle” value ([4]; 20% DMA/40% PEG-400 aqueous vehicle vs acetone, in words) was “retained its cytotoxic activity”, the cells killed ([4]; busulfan 25 μg/ml in 20% DMA/40% PEG-400 aqueous vehicle) was “about 50%” and the cells killed ([4]; busulfan 50 μg/ml in 20% DMA/40% PEG-400 aqueous vehicle) was “approximately 80%”. For the same compound, the “absorption, non-fasting vs fasting animals” value ([5]; oral) was “non-fasting animals seem to absorb more drug than fasting subjects”, the “bioavailability / plasma concentrations vs oral preparations” value ([5]; parenteral vs oral) was “higher after parenteral administration than after oral dosing” and the “AUC, parenteral vs standard tablet in non-fasting animals” value ([5]; ratio) was “about five times higher”. For the same compound, the “peak plasma concentration, parenteral vs standard tablet in non-fasting animals” value ([5]; ratio) was “approximately ten times higher”, the solubility [6] was 25 mg/mL (≈ 101 mM) and the liver toxicity ([7]; oral, high dose combinations) was “veno-occlusive disease (VOD) of the liver, leading to fatal liver failure”. The “neurological and gastrointestinal side effects” value ([7]; oral, high dose) was “grand mal seizures and severe nausea and vomiting”, the myelosuppression ([7]; prolonged administration) was “occasionally severe, sometimes even irreversible myelosuppression” and the “local toxicity of intraperitoneal injection” value [8] was “causes significant local tissue damage”. For the same compound, the “contribution of busulfan to hemolysis” value (human erythrocytes) was “did not add significantly to the overall hemolytic effect; also recorded: insignificant”, the solubility [9] was 75 mg/mL (≈ 304 mM) and the “hemolysis by busulfan itself” value (erythrocytes; Bishop et al., 1986) was “shown to cause hemolysis”.

For cyclodextrins, the “hemolysis LD50” value (erythrocytes; Yoshida et al., 1988) is listed as “about 2 % (w/v)”.
